# From US20040127518A1, “Modulation of anxiety through blockade of anandamide hydrolysis” (priority 2002, published 2004)
# Where two headings read alike, the source gives them in different places.
# Assays:
# brain FAAH activity = target: T1, brain FAAH activity (Rattus norvegicus, UniProt P97612); assay: Brain FAAH activity after systemic (i.p.) administration; assay type: in vivo; settings: ip, six experiments, read-out: half-maximal inhibition of brain FAAH activity (ID50)
# T1 construct: from tissue; host or cells: rat brain (membrane fraction of homogenate; Wistar rats)
# T1 sequence (P97612 1-579): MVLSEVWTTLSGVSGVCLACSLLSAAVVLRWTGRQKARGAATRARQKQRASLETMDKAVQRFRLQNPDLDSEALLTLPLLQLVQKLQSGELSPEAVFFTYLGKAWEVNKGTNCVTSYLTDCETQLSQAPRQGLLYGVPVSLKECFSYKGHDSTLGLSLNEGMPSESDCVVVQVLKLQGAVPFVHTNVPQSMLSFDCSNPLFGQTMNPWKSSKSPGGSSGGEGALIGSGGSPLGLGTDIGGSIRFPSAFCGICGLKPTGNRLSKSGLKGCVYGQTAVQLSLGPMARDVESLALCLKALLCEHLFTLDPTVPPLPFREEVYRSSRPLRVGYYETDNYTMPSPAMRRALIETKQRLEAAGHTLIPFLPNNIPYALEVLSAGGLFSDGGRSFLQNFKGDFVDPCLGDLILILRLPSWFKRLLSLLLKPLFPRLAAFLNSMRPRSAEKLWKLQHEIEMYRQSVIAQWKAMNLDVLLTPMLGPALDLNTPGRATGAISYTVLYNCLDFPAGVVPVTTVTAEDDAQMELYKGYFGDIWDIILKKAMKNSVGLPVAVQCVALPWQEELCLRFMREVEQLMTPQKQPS
# Elevated zero maze test = assay type: in vivo, rat; settings: adult rats; i.p. 30 min before test; UCM532 5 and 10 mg kg-1; UCM597 0.05-0.1 mg kg-1
# Experimental: We dissolved FAAH inhibitors and rimonabant in dimethylsulfoxide (DMSO)/saline (7/3 and 9/1, respectively); we administered FAAH inhibitors by i.p. injection 30 min before tests and rimonabant 30 min before UCM532. The elevated zero maze was comprised of a black Perspex annular platform (105 cm diameter, 10 cm width) elevated to 65 cm above ground level, divided equally into four quadrants (Bickerdike, M. J. et al., Eur. J. Pharmacol., 271, 403-411 (1994); Shepherd, J. K. et al., Psychopharmacology, 116, 56-64 (1994)). […] We placed the rats in a closed quadrant and video recorded them for 5-min periods, thoroughly cleaning the maze between sessions. […] Results are expressed as percent time in open quadrant/total time (percent time open). Results were analyzed by one-way ANOVA followed by Tukey's test. We recorded motor activity of each rat in an Opto-Varimex cage (Columbus Instruments, Columbus, Ohio) linked on-line to a computer and placed in a sound-attenuated room illuminated by a 20-W white light. The amount of time spent in ambulatory activity was analyzed using an Auto-Track software (Columbus Instruments, Columbus, Ohio) as described elsewhere (Ali, M. M. et al., Neurosci. Lett., 284, 57-60 (2000); Wedzony, K. et al., Neuropsychopharmacology, 23, 547-559 (2000)). […] We analyzed data by overall one-way ANOVA followed by Tukey's test for individual between-group comparisons. […]
# Mouse hot-plate test = assay type: in vivo; settings: dose not stated, data not shown
# Experimental: We dissolved FAAH inhibitors in polyethyleneglycol/water (1/1) and rimonabant in saline. Formalin and hot-plate assays were carried out in the mouse, as described (Beltramo, M. et al., FEBS Lett., 403, 263-267 (1997)).
# The compounds exerted, however, moderate antinociceptive effects in two models of acute pain.
# anandamide transport = assay: [3H]anandamide transport assay in human astrocytoma cells
# Excerpt: (§1) We prepared cell fractions from rat brain homogenates, and assayed membrane FAAH activity and cytosol MGL activity using anandamide [ethanolamine-3H] (American Radiolabeled Chemicals, ARC (St. Louis Mo.), 60 Ci/mmol) and 2-mono-oleoyl-glycerol-[glycerol-1,2,3^−3H] (ARC, St. Louis Mo., 20 Ci/mmol), respectively, as substrates (Dinh, T. Proc. Natl. Acad. Sci. U.S.A. (2002)). We conducted [^3H]anandamide transport assays in human astrocytoma cells (Piomelli, D. et al., Proc. Natl. Acad. Sci. U.S.A., 96, 5802-5807 (1999)); CB1 and CB2 binding assays in rat cerebellar membranes and CB2-overexpressing Chinese hamster ovary cells (Receptor Biology-Perkin Elmer, Wellesley, Mass.), respectively, using [^3H]WIN-55212-2 (NEN-Dupont, Boston, Mass., 40-60 Ci/mmol) as a ligand (Devane, W. A. et al. Science, 258, 1946-1949 (1992)); cholinesterase assays with a commercial kit (Sigma, St. Louis, Mo.), using purified enzymes (electric eel acetylcholinesterase type V-S and horse serum cholinesterase; both from Sigma, St. Louis, Mo.) and following manufacturer's instructions.
# CB2 receptor = CB2 receptor (Homo sapiens, UniProt P34972); assay: CB2 binding assay in CB2-overexpressing Chinese hamster ovary cells, [3H]WIN-55212-2
# Excerpt: as §1
# FAAH = target: T2, FAAH (Rattus norvegicus, UniProt P97612); assay: biochemical; assay type: biochemical; design: from tissue; host or cells: rat brain (membrane fraction of homogenate; Wistar rats)
# T2 sequence (P97612 1-579): T1 sequence (P97612 1-579)
# rat cortical neurons = assay: Transport, accumulation and release of non-metabolized [3H]anandamide in cortical neurons; assay type: cell-based
# Chain of CB2 receptor (P34972 whole entry): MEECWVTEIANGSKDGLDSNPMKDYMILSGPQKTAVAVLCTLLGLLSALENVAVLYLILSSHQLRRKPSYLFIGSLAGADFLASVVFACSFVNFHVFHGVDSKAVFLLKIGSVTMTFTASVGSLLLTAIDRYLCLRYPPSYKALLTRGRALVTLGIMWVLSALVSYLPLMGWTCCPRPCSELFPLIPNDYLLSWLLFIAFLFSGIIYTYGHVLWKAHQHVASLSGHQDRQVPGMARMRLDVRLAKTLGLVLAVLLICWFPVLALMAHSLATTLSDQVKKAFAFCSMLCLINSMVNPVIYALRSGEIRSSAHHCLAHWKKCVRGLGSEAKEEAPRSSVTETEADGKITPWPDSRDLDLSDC
smiles,measurement,setting,value
"CCCCNC(=O)Oc1ccc(OCc2ccccc2)cc1 [UCM532, n-Butylcarbamic acid 4-benzyloxyphenyl ester]",ED50,brain FAAH activity,0.6 ± 0.09 mg/kg
same,"percent time open, elevated zero maze",Elevated zero maze test,anxiolytic-like responses
same,"antinociceptive effect, hot-plate test, compared with UCM597",Mouse hot-plate test,"mimicked, albeit less effectively"
same,AT: maximal concentration of FAAH inhibitor tested,anandamide transport; Table 2,>300 µM
same,effect on anandamide transport (in words),anandamide transport; human astrocytoma cells,no effect
same,effect on binding of a high-affinity ligand to CB2 (in words),CB2 receptor,no effect
same,CB2: maximal concentration of FAAH inhibitor tested,CB2 receptor; Table 2,>300 µM
same,CB2 SI (maximal concentration tested/IC50 for FAAH),CB2 receptor; Table 2,≧1000
same,IC50,"FAAH; Table 3, read-out: Amidohydrolase IC50",400 nM
same,IC50,"FAAH; Table 4, FAAH IC50, read-out: Inhibition of Amidohydrolase IC50",300 nM
same,mode of FAAH inhibition (kinetic analyses and dialysis experiments),FAAH; data not shown,irreversible interaction
same,IC50,"FAAH; rat brain membranes, read-out: IC50",396 ± 63 nM
same,accumulation of non-metabolized [3H]anandamide in neurons,"rat cortical neurons; 4-min incubation, UCM532 3 μM, UCM597 10 nM, AM404 10 μM",promote accumulation
same,carrier-mediated uptake of [3H]anandamide,rat cortical neurons; rat cortical neurons,without reducing
